The source of these data is BindingDB's records for doi:10.1016/j.bmcl.2010.03.073 (Methylgene, 2010).

As a reminder, the pIC50 is the IC50 on a negative log10 scale, so that one unit is a factor of ten. Low values mean a high IC50, high ones a low IC50.

Test [1] in a line: Inhibition of c-Met-mediated cell migration of human A549 cells by would healing.
Test [2] in a line: Inhibition of c-Met-mediated scattering in HGF-stimulated human DU145 cells.

The structures appear in SMILES notation. pIC50: −log10 of the molar value.

Take `Cn1cnc(-c2cc3nccc(Oc4ccc(NC(=O)c5cnn(-c6ccccc6)c5C(F)(F)F)cc4F)c3s2)c1` [N-(3-fluoro-4-(2-(1-methyl-1H-imidazol-4-yl)thieno[3,2-b]pyridin-7-yloxy)phenyl)-1-phenyl-5-(trifluoromethyl)-1H-pyrazole-4-carboxamide]: the negative logarithm of the IC50 (pIC50) in test [1] was 6.40; in test [2], 5.70.
